Experimental data taken from patent publication US5834461A, “Tricyclic benzazepine vasopressin antagonists” (American Cyanamid Company, priority 1997, dated 1998).

Assays:
[1] = biological target: vasopressin V1 receptor (rat liver plasma membranes) (Rattus norvegicus, UniProt P30560); assay: Binding Assay to Rat Hepatic V1 Receptors; settings: for IC50: rat hepatic V1; for inhibition at 50 µM: 2 h, rat hepatic, read-out: V1, % at concentration in brackets
Description: Rat liver plasma membranes expressing the vasopressin V1 receptor subtypes are isolated by sucrose density gradient according to the method described by Lesko et al., (1973). These membranes are quickly suspended in 50.0 mM Tris.HCl buffer, pH 7.4, containing 0.2% bovine serum albumin (BSA) and 0.1 mM phenylmethylsulfonylfluoride (PMSF) and kept frozen at -70° C. until used in subsequent binding experiments. For binding experiments, the following is added to the wells of a ninety-six well format microtiter plate: 100 μl of 100.0 mM Tris.HCl buffer containing 10.0 mM MgCl2, 0.2% heat inactivated BSA and a mixture of protease inhibitors: leupeptin, 1.0 mg %; aprotinin, 1.0 mg %; 1,10-phenanthroline,2.0 mg %; trypsin inhibitor, 10.0 mg % and 0.1 mM PMSF, 20.0 μl of [phenylalanyl-3,4,5,-^3 H] vasopressin (S.A. 45.1 Ci/mmole) at 0.8 nM, and the reaction initiated by the addition of 80 μl of tissue membranes containing 20 μg of tissue protein. The plates are kept undisturbed on the bench top at room temperature for 120 min. to reach equilibrium. Non-specific samples are assayed in the presence of 0.1 μM of the unlabeled antagonist phenylalanylvasopressin, added in 20.0 μl volume.
For test compounds, these are solubilized in 50% dimethylsulfoxide (DMSO) and added in 20.0 μl volume to a final incubation volume of 200 μl. Upon completion of binding, the content of each well is filtered off, using a Brandel® cell Harvester (Gaithersburg, Md.). The radioactivity trapped on the filter disk by the ligand-receptor complex is assessed by liquid scintillation counting in a Packard LS Counter, with an efficiency of 65% for tritium.

[2] = biological target: T1, rat kidney medullary V2 receptors (Rattus norvegicus, UniProt Q00788); assay: Binding Assay to Rat Kidney Medullary V2 Receptors; settings: for IC50: rat kidney medullary V2; for inhibition at 50 µM: rat kidney, read-out: V2, % at concentration in brackets
T1 construct: Medullary tissues from rat kidneys are dissected out; from tissue; host or cells: rat kidney medulla membranes
Description: Medullary tissues from rat kidneys are dissected out, cut into small pieces and soaked in a […] sodium chloride solution containing 1.0 mM EDTA with many changes of the liquid phase, until the solution is clear of blood. The tissue is homogenized in a 0.25M sucrose solution containing 1.0 mM EDTA and 0.1 mM PMSF using a Potter-Elvehjem homogenizer with a teflon pestle. The homogenate is filtered through several layers (4 layers) of cheese cloth. The filtrate is rehomogenized using a dounce homogenizer, with a tight fitting pestle. The final homogenate is centrifuged at 1500×g for 15 min. The nuclear pellet is discarded and the supernatant fluid recentrifuged at 40,000×g for 30 min. The resulting pellet formed contains a dark inner part with the exterior, slightly pink. The pink outer part is suspended in a small amount of 50.0 mM Tris.HCl buffer, pH 7.4. The protein content is determined by the Lowry's method (Lowry et al., J. Biol. Chem., 1953). The membrane suspension is stored at -70° C., in 50.0 mM Tris.HCl, containing 0.2% inactivated BSA and 0.1 mM PMSF in aliquots of 1.0 ml containing 10.0 mg protein per ml of suspension until use in subsequent binding experiments.
For binding experiments, the following is added in μl volume to wells of a 96 well format of a microtiter plate: 100.0 μl of 100.0 mM Tris.HCl buffer containing 0.2% heat inactivated BSA, 10.0 mM MgCl2 and a mixture of protease inhibitors: leupeptin, 1.0 mg %; aprotinin, 1.0 mg %; 1,10-phenanthroline, 2.0 mg %; trypsin inhibitor, 10.0 mg % and 0.1 mM PMSF, 20.0 μl of [^3 H] Arginine^8, vasopressin (S.A. 75.0 Ci/mmole) at 0.8 nM and the reaction initiated by the addition of 80.0 μl of tissue membranes (200.0 μg tissue protein). The plates are left undisturbed on the bench top for 120 min to reach equilibrium. Non-specific binding is assessed in the presence of 1.0 μM of unlabeled ligand, added in 20 μl volume. For test compounds, these are solubilized in 50% dimethylsulfoxide (DMSO) and added in 20.0 μl volume to a final incubation volume of 200 μl. Upon completion of binding, the content of each well is filtered off, using a Brandel® cell Harvester (Gaithersburg, Md.). The radioactivity trapped on the filter disk by the ligand-receptor complex is assessed by liquid scintillation counting in a Packard LS Counter, with an efficiency of 65% for tritium.

vasopressin V1 receptor (rat liver plasma membranes), sequence (P30560 whole entry): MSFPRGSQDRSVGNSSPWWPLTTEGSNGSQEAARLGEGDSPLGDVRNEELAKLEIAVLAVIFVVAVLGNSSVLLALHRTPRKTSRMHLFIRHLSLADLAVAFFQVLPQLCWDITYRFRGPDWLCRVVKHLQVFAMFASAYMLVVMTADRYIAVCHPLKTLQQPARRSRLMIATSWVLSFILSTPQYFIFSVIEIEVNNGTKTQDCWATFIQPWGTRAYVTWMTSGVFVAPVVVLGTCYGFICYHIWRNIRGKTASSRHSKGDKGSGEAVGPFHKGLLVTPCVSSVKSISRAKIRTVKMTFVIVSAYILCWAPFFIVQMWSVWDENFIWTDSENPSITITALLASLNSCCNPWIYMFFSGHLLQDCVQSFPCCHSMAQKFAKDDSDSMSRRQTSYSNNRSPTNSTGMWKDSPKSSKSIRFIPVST
T1 sequence (Q00788 whole entry): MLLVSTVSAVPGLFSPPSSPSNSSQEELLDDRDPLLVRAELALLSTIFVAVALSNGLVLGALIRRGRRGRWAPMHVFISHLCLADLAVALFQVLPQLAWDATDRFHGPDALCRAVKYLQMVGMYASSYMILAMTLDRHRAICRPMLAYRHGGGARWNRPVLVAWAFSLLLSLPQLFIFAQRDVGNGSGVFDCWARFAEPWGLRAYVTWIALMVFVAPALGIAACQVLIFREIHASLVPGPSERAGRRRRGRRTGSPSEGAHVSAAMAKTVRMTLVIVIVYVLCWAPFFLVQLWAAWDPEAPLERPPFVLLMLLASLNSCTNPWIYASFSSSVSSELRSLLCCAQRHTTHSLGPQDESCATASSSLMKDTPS

Compound | IC50 [1] [nM] | IC50 [2] [nM] | inhibition at 50 µM [1] [%] | inhibition at 50 µM [2] [%]
Cc1ccsc1C(=O)Nc1ccc(C(=O)N2Cc3ccccc3Cc3ccccc32)cc1 [Example 18, N-[4-[(6,11-Dihydro-5H-dibenz[b,e]azepin-5-yl)carbonyl]phenyl]-3-methyl-2-thiophenecarboxamide] | 84 | 520 | – | –
Cc1ccccc1C(=O)Nc1ccc(C(=O)N2Cc3cc(S(=O)(=O)N(C)C)ccc3Oc3ccccc32)cc1 [Example 23, N-[4-[[2-[(Dimethylamino)sulfonyl]dibenz[b,f][1,4]oxazepin-10(11H)-yl]carbonyl]phenyl]-2-methylbenzamide] | – | – | 19 | 47
O=C(Nc1ccc(C(=O)N2Cc3ccccc3Cc3ccccc32)cc1)c1ccc(F)cc1F [Example 21, N-[4-[(6,11-Dihydro-5H-dibenz[b,e]azepin-5-yl)carbonyl]phenyl]-2,4-difluorobenzamide] | 280 | 440 | – | –
O=C(Nc1ccc(C(=O)N2Cc3ccccc3Cc3ccccc32)cc1)c1cccc(C(F)(F)F)c1 [Example 19, N-[4-[(6,11-Dihydro-5H-dibenz[b,e]azepine-5-yl)carbonyl]phenyl]-3-(trifluoromethyl)benzamide] | 1300 | 1200 | – | –
COc1cc(Cl)ccc1C(=O)Nc1ccc(C(=O)N2Cc3ccccc3Cc3ccccc32)cc1 [Example 165, N-[4-[(6,11-Dihydro-5H-dibenz[b,e]azepin-5-yl)carbonyl]phenyl]-2-methoxy-4-chlorobenzamide] | 490 | 370 | – | –
Cc1occc1C(=O)Nc1ccc(C(=O)N2Cc3ccccc3Cc3ccccc32)cc1 [Example 119] | 39 | 1100 | – | –
Cc1ccccc1C(=O)Nc1ccc(C(=O)N2Cc3cc(Cl)ccc3Oc3ccccc32)cc1 [Example 4] | 1500 | 1700 | – | –
O=C(Nc1ccc(C(=O)N2Cc3ccccc3-c3ccccc32)cc1)c1c(Cl)cccc1Cl [Example 7] | 630 | 77 | – | –
Cc1ccsc1C(=O)Nc1ccc(C(=O)N2Cc3ccccc3-c3ccccc32)cc1 [Example 3, 3-Methyl-N-[4-[(5(6H)-phenanthridinyl)carbonyl]-phenyl]-2-thiophenecarboxamide] | 170 | 420 | – | –
O=C(Nc1ccc(C(=O)N2Cc3ccccc3Cc3ccccc32)cc1)c1cc(Cl)ccc1Cl [Example 9, N-[4-[(6,11-Dihydro-5H-dibenz[b,e]azepin-5-yl)carbonyl]phenyl]-2,5-dichlorobenzamide] | 1100 | 280 | – | –

The next lines start with the values.

IC50 [1] [nM] | IC50 [2] [nM] | inhibition at 50 µM [1] [%] | inhibition at 50 µM [2] [%] | Compound
340 | 300 | – | – | Cc1ccc(C(=O)Nc2ccc(C(=O)N3Cc4ccccc4Cc4ccccc43)cc2)c(C)c1 [Example 13, N-[4-[(6,11-Dihydro-5H-dibenz[b,e]azepin-5-yl)carbonyl]phenyl]2,4-dimethylbenzamide]
– | – | 60 | 80 | Cc1ccccc1C(=O)Nc1ccc(C(=O)N2Cc3ccccc3CCc3ccccc32)cc1 [Example 6, N-[4-[(11,12-Dihydrodibenz[b,f]azocin-5-(6H)-yl)-carbonyl]phenyl]-2-methylbenzamide]
170 | 410 | – | – | O=C(Nc1ccc(C(=O)N2Cc3ccccc3Cc3ccccc32)cc1)c1ccccc1 [Example 24, N-[4-[(6,11-Dihydro-5H-dibenz[b,e]azepin-5-yl)carbonyl]phenyl]benzamide]
390 | 180 | – | – | Cc1ccc(C)c(C(=O)Nc2ccc(C(=O)N3Cc4ccccc4Cc4ccccc43)cc2)c1 [Example 12, N-[4-[(6,11-Dihydro-5H-dibenz[b,e]azepin-5-yl)carbonyl]phenyl]-2,5-dimethylbenzamide]
52 | 560 | – | – | O=C(Nc1ccc(C(=O)N2Cc3ccccc3Cc3ccccc32)cc1)c1ccccc1OC(F)(F)F [Example 25, N-[4-[(6,11-Dihydro-5H-dibenz[b,e]azepin-5-yl)carbonyl]phenyl]-2-(trifluoromethoxy)benzamide]
